Experiment: xn = mol fraction of the nth substance listed
Details: 101 kPa, Liquid; for speed of sound: Sing-around technique in a fixed-path interferometer

CCC(C)Cl (stereo not drawn) [2-chlorobutane] + CC(C)OC(C)C
Details | mass density [kg/m3] | speed of sound [m/s]
283.15 K, x1 = 0.0519 | 740.159 | 1068.8
283.15 K, x1 = 0.0988 | 745.897 | 1071.7
283.15 K, x1 = 0.2006 | 758.792 | 1078
283.15 K, x1 = 0.3211 | 774.756 | 1085.4
283.15 K, x1 = 0.4201 | 788.575 | 1091.5
283.15 K, x1 = 0.532 | 804.971 | 1098.5
283.15 K, x1 = 0.6244 | 819.223 | 1104.3
283.15 K, x1 = 0.726 | 835.602 | 1110.7
283.15 K, x1 = 0.8163 | 850.907 | 1116.3
283.15 K, x1 = 0.8817 | 862.411 | 1120.4
283.15 K, x1 = 0.9634 | 877.39 | 1125.5
288.15 K, x1 = 0.0519 | 734.981 | 1046.5
288.15 K, x1 = 0.0988 | 740.712 | 1049.4
288.15 K, x1 = 0.2006 | 753.569 | 1055.8
288.15 K, x1 = 0.3211 | 769.483 | 1063.4
288.15 K, x1 = 0.4201 | 783.251 | 1069.7
288.15 K, x1 = 0.532 | 799.602 | 1076.9
288.15 K, x1 = 0.6244 | 813.814 | 1082.9
288.15 K, x1 = 0.726 | 830.144 | 1089.5
288.15 K, x1 = 0.8163 | 845.414 | 1095.4
288.15 K, x1 = 0.8817 | 856.901 | 1099.6
288.15 K, x1 = 0.9634 | 871.819 | 1104.9
293.15 K, x1 = 0.0519 | 729.792 | 1024
293.15 K, x1 = 0.0988 | 735.485 | 1027.1
293.15 K, x1 = 0.2006 | 748.303 | 1033.7
293.15 K, x1 = 0.3211 | 764.161 | 1041.4
293.15 K, x1 = 0.4201 | 777.889 | 1047.9
293.15 K, x1 = 0.532 | 794.197 | 1055.3
293.15 K, x1 = 0.6244 | 808.369 | 1061.5
293.15 K, x1 = 0.726 | 824.657 | 1068.3
293.15 K, x1 = 0.8163 | 839.877 | 1074.4
293.15 K, x1 = 0.8817 | 851.332 | 1078.7
293.15 K, x1 = 0.9634 | 866.214 | 1084.3
298.15 K, x1 = 0.0519 | 724.535 | 1001.8
298.15 K, x1 = 0.0988 | 730.22 | 1004.9
298.15 K, x1 = 0.2006 | 742.995 | 1011.5
298.15 K, x1 = 0.3211 | 758.802 | 1019.4
298.15 K, x1 = 0.4201 | 772.485 | 1026.1
298.15 K, x1 = 0.532 | 788.75 | 1033.8
298.15 K, x1 = 0.6244 | 802.882 | 1040.2
298.15 K, x1 = 0.726 | 819.123 | 1047.2
298.15 K, x1 = 0.8163 | 834.307 | 1053.5
298.15 K, x1 = 0.8817 | 845.724 | 1057.9
298.15 K, x1 = 0.9634 | 860.57 | 1063.7
303.15 K, x1 = 0.0519 | 719.276 | 979.57
303.15 K, x1 = 0.0988 | 724.919 | 982.73
303.15 K, x1 = 0.2006 | 737.649 | 989.5
303.15 K, x1 = 0.3211 | 753.411 | 997.66
303.15 K, x1 = 0.4201 | 767.06 | 1004.4
303.15 K, x1 = 0.532 | 783.263 | 1012.3
303.15 K, x1 = 0.6244 | 797.355 | 1018.8
303.15 K, x1 = 0.726 | 813.555 | 1026.1
303.15 K, x1 = 0.8163 | 828.698 | 1032.6
303.15 K, x1 = 0.8817 | 840.084 | 1037.2
303.15 K, x1 = 0.9634 | 854.895 | 1043.2
308.15 K, x1 = 0.0519 | 713.939 | 957.51
308.15 K, x1 = 0.0988 | 719.569 | 960.7
308.15 K, x1 = 0.2006 | 732.261 | 967.56
308.15 K, x1 = 0.3211 | 747.973 | 975.92
308.15 K, x1 = 0.4201 | 761.571 | 982.81
308.15 K, x1 = 0.532 | 777.737 | 990.84
308.15 K, x1 = 0.6244 | 791.784 | 997.54
308.15 K, x1 = 0.726 | 807.944 | 1005
308.15 K, x1 = 0.8163 | 823.046 | 1011.6
308.15 K, x1 = 0.8817 | 834.402 | 1016.4
308.15 K, x1 = 0.9634 | 849.179 | 1022.6
313.15 K, x1 = 0.0519 | 708.573 | 935.64
313.15 K, x1 = 0.0988 | 714.181 | 938.87
313.15 K, x1 = 0.2006 | 726.833 | 945.88
313.15 K, x1 = 0.3211 | 742.484 | 954.34
313.15 K, x1 = 0.4201 | 756.049 | 961.42
313.15 K, x1 = 0.532 | 772.166 | 969.67
313.15 K, x1 = 0.6244 | 786.18 | 976.57
313.15 K, x1 = 0.726 | 802.287 | 984.26
313.15 K, x1 = 0.8163 | 817.349 | 991.15
313.15 K, x1 = 0.8817 | 828.683 | 996.09
313.15 K, x1 = 0.9634 | 843.442 | 1002.5

CC(C)CCl [1-chloro-2-methylpropane] + CC(C)OC(C)C
Details | mass density [kg/m3] | speed of sound [m/s]
283.15 K, x1 = 0.0549 | 740.509 | 1069.1
283.15 K, x1 = 0.091 | 745.071 | 1071.7
283.15 K, x1 = 0.1977 | 758.96 | 1079.6
283.15 K, x1 = 0.2934 | 772.077 | 1087
283.15 K, x1 = 0.3911 | 785.941 | 1094.4
283.15 K, x1 = 0.5137 | 804.21 | 1103.7
283.15 K, x1 = 0.6034 | 818.258 | 1110.5
283.15 K, x1 = 0.6769 | 830.206 | 1116.2
283.15 K, x1 = 0.8059 | 852.473 | 1126.3
283.15 K, x1 = 0.9111 | 871.773 | 1134.7
283.15 K, x1 = 0.9646 | 881.981 | 1139
288.15 K, x1 = 0.0549 | 735.346 | 1046.8
288.15 K, x1 = 0.091 | 739.888 | 1049.4
288.15 K, x1 = 0.1977 | 753.737 | 1057.5
288.15 K, x1 = 0.2934 | 766.807 | 1064.8
288.15 K, x1 = 0.3911 | 780.617 | 1072.3
288.15 K, x1 = 0.5137 | 798.831 | 1081.8
288.15 K, x1 = 0.6034 | 812.821 | 1088.7
288.15 K, x1 = 0.6769 | 824.734 | 1094.5
288.15 K, x1 = 0.8059 | 846.936 | 1104.9
288.15 K, x1 = 0.9111 | 866.179 | 1113.5
288.15 K, x1 = 0.9646 | 876.368 | 1117.9
293.15 K, x1 = 0.0549 | 730.142 | 1024.4
293.15 K, x1 = 0.091 | 734.678 | 1027
293.15 K, x1 = 0.1977 | 748.467 | 1035.1
293.15 K, x1 = 0.2934 | 761.481 | 1042.6
293.15 K, x1 = 0.3911 | 775.245 | 1050.3
293.15 K, x1 = 0.5137 | 793.406 | 1059.9
293.15 K, x1 = 0.6034 | 807.35 | 1066.9
293.15 K, x1 = 0.6769 | 819.228 | 1072.8
293.15 K, x1 = 0.8059 | 841.356 | 1083.4
293.15 K, x1 = 0.9111 | 860.549 | 1092.2
293.15 K, x1 = 0.9646 | 870.717 | 1096.8
298.15 K, x1 = 0.0549 | 724.887 | 1002.1
298.15 K, x1 = 0.091 | 729.395 | 1004.7
298.15 K, x1 = 0.1977 | 743.114 | 1013
298.15 K, x1 = 0.2934 | 756.06 | 1020.5
298.15 K, x1 = 0.3911 | 769.763 | 1028.2
298.15 K, x1 = 0.5137 | 787.825 | 1038
298.15 K, x1 = 0.6034 | 801.699 | 1045.2
298.15 K, x1 = 0.6769 | 813.519 | 1051.2
298.15 K, x1 = 0.8059 | 835.53 | 1062
298.15 K, x1 = 0.9111 | 854.603 | 1071
298.15 K, x1 = 0.9646 | 864.749 | 1075.6
303.15 K, x1 = 0.0549 | 719.603 | 979.86
303.15 K, x1 = 0.091 | 724.11 | 982.53
303.15 K, x1 = 0.1977 | 737.798 | 990.87
303.15 K, x1 = 0.2934 | 750.738 | 998.49
303.15 K, x1 = 0.3911 | 764.421 | 1006.3
303.15 K, x1 = 0.5137 | 782.446 | 1016.2
303.15 K, x1 = 0.6034 | 796.305 | 1023.5
303.15 K, x1 = 0.6769 | 808.11 | 1029.7
303.15 K, x1 = 0.8059 | 830.111 | 1040.8
303.15 K, x1 = 0.9111 | 849.196 | 1050
303.15 K, x1 = 0.9646 | 859.307 | 1054.8
308.15 K, x1 = 0.0549 | 714.28 | 957.82
308.15 K, x1 = 0.091 | 718.759 | 960.52
308.15 K, x1 = 0.1977 | 732.397 | 968.88
308.15 K, x1 = 0.2934 | 745.3 | 976.54
308.15 K, x1 = 0.3911 | 758.935 | 984.48
308.15 K, x1 = 0.5137 | 776.901 | 994.58
308.15 K, x1 = 0.6034 | 790.719 | 1002
308.15 K, x1 = 0.6769 | 802.492 | 1008.2
308.15 K, x1 = 0.8059 | 824.422 | 1019.6
308.15 K, x1 = 0.9111 | 843.468 | 1029
308.15 K, x1 = 0.9646 | 853.542 | 1033.8
313.15 K, x1 = 0.0549 | 708.887 | 935.95
313.15 K, x1 = 0.091 | 713.334 | 938.67
313.15 K, x1 = 0.1977 | 726.882 | 947.16
313.15 K, x1 = 0.2934 | 739.693 | 954.94
313.15 K, x1 = 0.3911 | 753.227 | 963
313.15 K, x1 = 0.5137 | 771.077 | 973.17
313.15 K, x1 = 0.6034 | 784.802 | 980.73
313.15 K, x1 = 0.6769 | 796.487 | 987.04
313.15 K, x1 = 0.8059 | 818.264 | 998.57
313.15 K, x1 = 0.9111 | 837.168 | 1008.1
313.15 K, x1 = 0.9646 | 847.176 | 1013

Reference: the NIST ThermoML archive (doi:10.1021/je100765j)
